Experimental data taken from ChEMBL document CHEMBL2439983, “The discovery and optimization of novel dual inhibitors of topoisomerase II and histone deacetylase” (Bioorg Med Chem, 2013).
The source made the active and inactive calls. No cut-off for these calls is given here.

Key:
[1] = molecular target: T1, Protein deacetylase HDAC6 (Homo sapiens, UniProt Q9UBN7); experiment: Inhibition of human recombinant HDAC6 expressed in baculovirus infected insect high5 cells using Boc-Lys (epsilon-acetyl)-AM) as substrate after 3 to 24 hrs by fluorescence assay
T1 sequence (Q9UBN7 whole entry): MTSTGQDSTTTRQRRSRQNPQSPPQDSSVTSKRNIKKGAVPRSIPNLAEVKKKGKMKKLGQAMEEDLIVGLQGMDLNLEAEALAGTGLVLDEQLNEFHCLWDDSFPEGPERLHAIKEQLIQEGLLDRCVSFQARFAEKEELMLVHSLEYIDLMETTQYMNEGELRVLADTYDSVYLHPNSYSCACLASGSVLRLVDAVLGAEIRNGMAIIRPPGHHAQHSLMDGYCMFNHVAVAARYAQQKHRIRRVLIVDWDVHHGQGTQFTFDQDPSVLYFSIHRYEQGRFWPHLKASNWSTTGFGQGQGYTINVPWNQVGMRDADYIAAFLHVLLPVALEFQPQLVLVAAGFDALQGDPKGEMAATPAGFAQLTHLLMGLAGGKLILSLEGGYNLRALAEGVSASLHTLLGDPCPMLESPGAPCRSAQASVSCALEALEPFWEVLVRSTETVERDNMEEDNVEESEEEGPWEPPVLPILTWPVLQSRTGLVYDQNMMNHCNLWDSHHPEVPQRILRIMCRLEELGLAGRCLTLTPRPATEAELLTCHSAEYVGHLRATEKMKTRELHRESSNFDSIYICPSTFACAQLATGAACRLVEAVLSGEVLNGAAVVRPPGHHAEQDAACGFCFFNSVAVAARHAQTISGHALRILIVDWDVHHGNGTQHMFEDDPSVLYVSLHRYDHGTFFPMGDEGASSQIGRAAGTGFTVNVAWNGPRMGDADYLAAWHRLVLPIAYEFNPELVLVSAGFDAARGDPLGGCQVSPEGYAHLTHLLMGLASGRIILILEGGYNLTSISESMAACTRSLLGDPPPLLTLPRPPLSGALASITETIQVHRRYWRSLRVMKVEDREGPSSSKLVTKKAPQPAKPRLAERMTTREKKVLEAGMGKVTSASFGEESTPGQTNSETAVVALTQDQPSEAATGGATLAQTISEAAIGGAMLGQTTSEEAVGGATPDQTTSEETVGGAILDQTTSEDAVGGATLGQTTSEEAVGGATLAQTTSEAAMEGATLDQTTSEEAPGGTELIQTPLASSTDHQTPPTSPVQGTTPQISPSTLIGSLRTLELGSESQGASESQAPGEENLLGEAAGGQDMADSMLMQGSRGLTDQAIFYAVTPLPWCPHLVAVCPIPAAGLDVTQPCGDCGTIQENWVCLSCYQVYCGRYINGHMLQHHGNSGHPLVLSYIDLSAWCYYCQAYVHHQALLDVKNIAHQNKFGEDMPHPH

HCT-116 = experiment: cells; settings: Homo sapiens, HCT-116, 72 h
Description: Antiproliferative activity against human HCT116 cells assessed as cell viability after 72 hrs by MTT assay

Histone deacetylase 3 = Histone deacetylase 3 (Homo sapiens, UniProt O15379); experiment: Inhibition of human recombinant HDAC3 expressed in baculovirus infected insect high5 cells using Ac-Lys-Tyr-Lys (epsilon-acetyl)-AMC as substrate after 3 to 24 hrs by fluorescence assay
Sequence of Histone deacetylase 3 (O15379 whole entry): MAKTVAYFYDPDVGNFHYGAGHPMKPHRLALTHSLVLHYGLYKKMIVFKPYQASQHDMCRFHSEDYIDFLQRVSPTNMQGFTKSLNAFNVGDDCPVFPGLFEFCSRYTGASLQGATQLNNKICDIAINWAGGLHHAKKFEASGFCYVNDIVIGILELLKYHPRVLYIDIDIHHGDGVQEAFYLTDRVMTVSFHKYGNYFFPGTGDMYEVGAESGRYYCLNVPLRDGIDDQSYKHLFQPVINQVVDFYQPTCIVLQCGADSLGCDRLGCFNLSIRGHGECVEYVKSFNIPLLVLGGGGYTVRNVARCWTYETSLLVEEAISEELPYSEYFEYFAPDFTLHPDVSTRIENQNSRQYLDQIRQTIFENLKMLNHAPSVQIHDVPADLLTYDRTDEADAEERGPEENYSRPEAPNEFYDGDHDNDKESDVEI

Histone deacetylase 1 = Histone deacetylase 1 (Homo sapiens, UniProt Q13547); experiment: Inhibition of human recombinant HDAC1 expressed in baculovirus infected insect high5 cells using Ac-Lys-Tyr-Lys (epsilon-acetyl)-AMC as substrate after 3 to 24 hrs by fluorescence assay
Sequence of Histone deacetylase 1 (Q13547 whole entry): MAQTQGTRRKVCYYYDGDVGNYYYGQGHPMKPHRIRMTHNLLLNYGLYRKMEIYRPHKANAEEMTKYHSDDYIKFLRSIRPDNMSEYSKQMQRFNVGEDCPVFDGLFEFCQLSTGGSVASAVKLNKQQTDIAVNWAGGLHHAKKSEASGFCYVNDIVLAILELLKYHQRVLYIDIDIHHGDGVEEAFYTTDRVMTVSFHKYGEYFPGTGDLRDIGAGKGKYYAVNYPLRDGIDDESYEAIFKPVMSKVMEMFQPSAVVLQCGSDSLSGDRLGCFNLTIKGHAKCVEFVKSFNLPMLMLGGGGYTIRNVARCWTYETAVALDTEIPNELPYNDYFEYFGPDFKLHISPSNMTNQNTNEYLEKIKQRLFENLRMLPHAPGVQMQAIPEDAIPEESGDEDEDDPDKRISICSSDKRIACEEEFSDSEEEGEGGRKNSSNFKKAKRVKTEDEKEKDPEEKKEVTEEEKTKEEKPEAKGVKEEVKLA

[2] = molecular target: DNA topoisomerase 2-alpha (Homo sapiens) (UniProt P11388); experiment: Inhibition of Topoisomerase 2 (unknown origin) assessed as impairment of pBR322 DNA decatenation at 100 uM after 30 mins by agarose gel electrophoresis
Sequence of DNA topoisomerase 2-alpha (Homo sapiens) (P11388 whole entry): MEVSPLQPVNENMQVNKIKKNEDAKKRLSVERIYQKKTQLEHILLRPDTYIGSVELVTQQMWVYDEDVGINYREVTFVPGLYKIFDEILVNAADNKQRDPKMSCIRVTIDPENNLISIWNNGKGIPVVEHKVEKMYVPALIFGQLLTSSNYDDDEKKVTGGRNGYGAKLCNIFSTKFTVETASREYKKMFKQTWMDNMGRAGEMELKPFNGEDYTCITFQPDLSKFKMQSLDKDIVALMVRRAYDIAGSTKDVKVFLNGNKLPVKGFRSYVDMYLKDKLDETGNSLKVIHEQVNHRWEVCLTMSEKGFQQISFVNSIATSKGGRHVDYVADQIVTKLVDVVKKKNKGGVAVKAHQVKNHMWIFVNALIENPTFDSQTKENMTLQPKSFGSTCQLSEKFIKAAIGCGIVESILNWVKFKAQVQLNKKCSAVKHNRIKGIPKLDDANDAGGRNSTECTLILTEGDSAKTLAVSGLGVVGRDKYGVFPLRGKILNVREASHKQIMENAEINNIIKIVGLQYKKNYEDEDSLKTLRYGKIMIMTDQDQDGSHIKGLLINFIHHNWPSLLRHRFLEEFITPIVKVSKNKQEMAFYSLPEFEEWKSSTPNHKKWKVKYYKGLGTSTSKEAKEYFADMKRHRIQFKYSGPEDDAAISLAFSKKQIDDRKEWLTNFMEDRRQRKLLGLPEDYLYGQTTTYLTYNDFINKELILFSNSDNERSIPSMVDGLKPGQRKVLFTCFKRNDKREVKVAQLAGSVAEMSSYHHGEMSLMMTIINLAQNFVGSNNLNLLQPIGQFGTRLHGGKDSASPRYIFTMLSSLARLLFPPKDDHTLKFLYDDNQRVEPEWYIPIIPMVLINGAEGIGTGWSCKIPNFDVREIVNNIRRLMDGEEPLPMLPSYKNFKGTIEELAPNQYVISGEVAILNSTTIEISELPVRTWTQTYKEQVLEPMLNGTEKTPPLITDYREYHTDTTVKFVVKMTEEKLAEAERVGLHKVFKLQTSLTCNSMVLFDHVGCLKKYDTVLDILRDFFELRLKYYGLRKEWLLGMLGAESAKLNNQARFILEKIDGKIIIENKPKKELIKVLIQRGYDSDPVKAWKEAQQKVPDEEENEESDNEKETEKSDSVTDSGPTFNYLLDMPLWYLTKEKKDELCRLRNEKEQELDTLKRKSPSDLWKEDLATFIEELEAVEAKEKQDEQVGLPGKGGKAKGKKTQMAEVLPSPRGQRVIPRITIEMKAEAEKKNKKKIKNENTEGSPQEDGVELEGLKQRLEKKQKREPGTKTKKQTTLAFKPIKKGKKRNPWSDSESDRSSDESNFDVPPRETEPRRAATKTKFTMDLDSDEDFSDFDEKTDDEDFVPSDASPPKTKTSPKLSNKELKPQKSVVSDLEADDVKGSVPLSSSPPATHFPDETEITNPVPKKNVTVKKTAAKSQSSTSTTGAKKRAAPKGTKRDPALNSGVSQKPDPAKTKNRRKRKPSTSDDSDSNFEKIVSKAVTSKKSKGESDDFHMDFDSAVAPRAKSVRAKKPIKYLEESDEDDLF

Histone deacetylase 2 = Histone deacetylase 2 (Homo sapiens, UniProt Q92769); experiment: Inhibition of HDAC2 (unknown origin)
Sequence of Histone deacetylase 2 (Q92769 whole entry): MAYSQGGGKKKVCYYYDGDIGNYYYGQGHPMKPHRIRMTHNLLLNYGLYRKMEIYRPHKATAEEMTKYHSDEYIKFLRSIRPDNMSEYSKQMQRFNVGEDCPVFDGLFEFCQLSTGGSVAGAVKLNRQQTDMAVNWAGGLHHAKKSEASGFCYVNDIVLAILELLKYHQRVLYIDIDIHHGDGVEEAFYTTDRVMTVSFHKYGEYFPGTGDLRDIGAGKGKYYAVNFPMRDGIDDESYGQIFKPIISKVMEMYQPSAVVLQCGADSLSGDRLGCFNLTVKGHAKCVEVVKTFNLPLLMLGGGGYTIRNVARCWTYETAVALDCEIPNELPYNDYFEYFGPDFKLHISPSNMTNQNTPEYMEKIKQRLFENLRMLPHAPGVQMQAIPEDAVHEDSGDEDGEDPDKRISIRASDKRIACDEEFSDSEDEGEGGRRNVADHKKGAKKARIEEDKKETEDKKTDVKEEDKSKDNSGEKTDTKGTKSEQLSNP

A549 = experiment: Antiproliferative activity against human A549 cells assessed as cell viability after 72 hrs by MTT assay; format: functional, cell-based; settings: A549, 72 h

COc1cc([C@@H]2c3cc4c(cc3[C@@H](Nc3cccc(NC(=O)CCCCCCC(=O)NO)c3)[C@H]3COC(=O)[C@H]23)OCO4)cc(OC)c1O
IC50 [1]: 40 nM | IC50 (HCT-116): 8570 nM | IC50 (Histone deacetylase 3): 130 nM | IC50 (Histone deacetylase 1): 100 nM | inhibition [2]: Active

COc1cc([C@@H]2c3cc4c(cc3[C@@H](O[C@@H]3O[C@@H]5CO[C@@H](C)O[C@H]5[C@H](O)[C@H]3O)[C@H]3COC(=O)[C@H]23)OCO4)cc(OC)c1O [ETOPOSIDE]
IC50 (HCT-116): 870 nM | IC50 (Histone deacetylase 1): > 34000 nM | inhibition [2]: Active

COc1cc([C@@H]2c3cc4c(cc3[C@@H](Nc3cccc(OCCCCC(=O)NO)c3)[C@H]3COC(=O)[C@H]23)OCO4)cc(OC)c1O
IC50 [1]: 42 nM | IC50 (HCT-116): 6290 nM | IC50 (Histone deacetylase 3): 111 nM | IC50 (Histone deacetylase 1): 93 nM

COc1cc([C@@H]2c3cc4c(cc3[C@@H](Nc3ccc(NC(=O)CCCCCCC(=O)NO)cc3)[C@H]3COC(=O)[C@H]23)OCO4)cc(OC)c1O
IC50 (Histone deacetylase 2): 140 nM | IC50 [1]: 90 nM | IC50 (HCT-116): 1270 nM | IC50 (Histone deacetylase 3): 230 nM | IC50 (Histone deacetylase 1): 210 nM | inhibition [2]: Active | IC50 (A549): 18600 nM

COc1cc([C@@H]2c3cc4c(cc3[C@@H](Nc3cccc(OCCCC(=O)NO)c3)[C@H]3COC(=O)[C@H]23)OCO4)cc(OC)c1O
IC50 [1]: 405 nM | IC50 (HCT-116): 29400 nM | IC50 (Histone deacetylase 3): 767 nM | IC50 (Histone deacetylase 1): 385 nM

COc1cc([C@@H]2c3cc4c(cc3[C@@H](Nc3ccc(NC(=O)CCCCC(=O)NO)cc3)[C@H]3COC(=O)[C@H]23)OCO4)cc(OC)c1O
IC50 [1]: 1060 nM | IC50 (HCT-116): 3760 nM | IC50 (Histone deacetylase 3): 1690 nM | IC50 (Histone deacetylase 1): 2830 nM

COc1cc([C@@H]2c3cc4c(cc3[C@@H](Nc3cccc(OCCCCCCCC(=O)NO)c3)[C@H]3COC(=O)[C@H]23)OCO4)cc(OC)c1O
IC50 [1]: 69 nM | IC50 (HCT-116): 5190 nM | IC50 (Histone deacetylase 3): 69 nM | IC50 (Histone deacetylase 1): 39 nM

COc1cc([C@@H]2c3cc4c(cc3[C@@H](Nc3cccc(OCCCCCC(=O)NO)c3)[C@H]3COC(=O)[C@H]23)OCO4)cc(OC)c1O
IC50 [1]: 15 nM | IC50 (HCT-116): 5720 nM | IC50 (Histone deacetylase 3): 81 nM | IC50 (Histone deacetylase 1): 45 nM

COc1cc([C@@H]2c3cc4c(cc3[C@@H](Nc3ccc(OCCCCC(=O)NO)cc3)[C@H]3COC(=O)[C@H]23)OCO4)cc(OC)c1O
IC50 [1]: 88 nM | IC50 (HCT-116): 5260 nM | IC50 (Histone deacetylase 3): 242 nM | IC50 (Histone deacetylase 1): 125 nM

COc1cc([C@@H]2c3cc4c(cc3[C@@H](Nc3cccc(NC(=O)CCCCCC(=O)NO)c3)[C@H]3COC(=O)[C@H]23)OCO4)cc(OC)c1O
IC50 [1]: 160 nM | IC50 (HCT-116): 19600 nM | IC50 (Histone deacetylase 3): 590 nM | IC50 (Histone deacetylase 1): 380 nM

COc1cc([C@@H]2c3cc4c(cc3[C@@H](Nc3ccc(OCCCCCC(=O)NO)cc3)[C@H]3COC(=O)[C@H]23)OCO4)cc(OC)c1O
IC50 [1]: 26 nM | IC50 (HCT-116): 4920 nM | IC50 (Histone deacetylase 3): 69 nM | IC50 (Histone deacetylase 1): 207 nM

COc1cc([C@@H]2c3cc4c(cc3[C@@H](Nc3cccc(OCCCCCCC(=O)Nc5ccccc5N)c3)[C@H]3COC(=O)[C@H]23)OCO4)cc(OC)c1O
IC50 (Histone deacetylase 2): 53500 nM | IC50 (HCT-116): 920 nM | IC50 (A549): 1110 nM

O=C(CCCCCCC(=O)Nc1ccccc1)NO
inhibition [2]: inactive

COc1cc([C@@H]2c3cc4c(cc3[C@@H](Nc3ccc(OCCCCCCC(=O)NO)cc3)[C@H]3COC(=O)[C@H]23)OCO4)cc(OC)c1O
IC50 [1]: 16 nM | IC50 (HCT-116): 5030 nM | IC50 (Histone deacetylase 3): 49 nM | IC50 (Histone deacetylase 1): 29 nM | inhibition [2]: Active

Nc1ccccc1NC(=O)c1ccc(CNc2nccc(-c3cccnc3)n2)cc1 [MOCETINOSTAT]
IC50 (HCT-116): 1570 nM | inhibition [2]: inactive

COc1cc([C@@H]2c3cc4c(cc3[C@@H](Nc3ccccc3OCCCCCCC(=O)NO)[C@H]3COC(=O)[C@H]23)OCO4)cc(OC)c1O
IC50 [1]: 27 nM | IC50 (HCT-116): 11300 nM | IC50 (Histone deacetylase 3): 155 nM | IC50 (Histone deacetylase 1): 72 nM | inhibition [2]: Active

COc1cc([C@@H]2c3cc4c(cc3[C@@H](Nc3cccc(OCCCCCCC(=O)NO)c3)[C@H]3COC(=O)[C@H]23)OCO4)cc(OC)c1O
IC50 [1]: 5.6 nM | IC50 (HCT-116): 3330 nM | IC50 (Histone deacetylase 3): 9.6 nM | IC50 (Histone deacetylase 1): 11 nM | inhibition [2]: Active

COc1cc([C@@H]2c3cc4c(cc3[C@@H](Nc3ccc(OCCCCCCCC(=O)NO)cc3)[C@H]3COC(=O)[C@H]23)OCO4)cc(OC)c1O
IC50 [1]: 53 nM | IC50 (HCT-116): 3720 nM | IC50 (Histone deacetylase 3): 53 nM | IC50 (Histone deacetylase 1): 87 nM

COc1cc([C@@H]2c3cc4c(cc3[C@@H](Nc3ccc(NC(=O)CCCCCC(=O)NO)cc3)[C@H]3COC(=O)[C@H]23)OCO4)cc(OC)c1O
IC50 [1]: 130 nM | IC50 (HCT-116): 2940 nM | IC50 (Histone deacetylase 3): 520 nM | IC50 (Histone deacetylase 1): 590 nM

COc1cc([C@@H]2c3cc4c(cc3[C@@H](Nc3cccc(NC(=O)CCCCC(=O)NO)c3)[C@H]3COC(=O)[C@H]23)OCO4)cc(OC)c1O
IC50 [1]: 520 nM | IC50 (HCT-116): 14100 nM | IC50 (Histone deacetylase 3): 2110 nM | IC50 (Histone deacetylase 1): 1430 nM

COc1cc([C@@H]2c3cc4c(cc3[C@@H](Nc3ccccc3OCCCCCC(=O)NO)[C@H]3COC(=O)[C@H]23)OCO4)cc(OC)c1O
IC50 [1]: 20 nM | IC50 (HCT-116): 8100 nM | IC50 (Histone deacetylase 3): 188 nM | IC50 (Histone deacetylase 1): 145 nM

COc1cc([C@@H]2c3cc4c(cc3[C@@H](Nc3ccc(OCCCC(=O)NO)cc3)[C@H]3COC(=O)[C@H]23)OCO4)cc(OC)c1O
IC50 [1]: 214 nM | IC50 (HCT-116): 5370 nM | IC50 (Histone deacetylase 3): 193 nM | IC50 (Histone deacetylase 1): 243 nM

COc1cc([C@@H]2c3cc4c(cc3[C@@H](Nc3ccccc3OCCCCC(=O)NO)[C@H]3COC(=O)[C@H]23)OCO4)cc(OC)c1O
IC50 [1]: 84 nM | IC50 (HCT-116): 16500 nM | IC50 (Histone deacetylase 3): 899 nM | IC50 (Histone deacetylase 1): 369 nM

COc1cc([C@@H]2c3cc4c(cc3[C@@H](Nc3ccccc3OCCCCCCCC(=O)NO)[C@H]3COC(=O)[C@H]23)OCO4)cc(OC)c1O
IC50 [1]: 217 nM | IC50 (HCT-116): 11400 nM | IC50 (Histone deacetylase 3): 217 nM | IC50 (Histone deacetylase 1): 175 nM

COc1cc([C@@H]2c3cc4c(cc3[C@@H](Nc3ccc(OCCCCCCC(=O)Nc5ccccc5N)cc3)[C@H]3COC(=O)[C@H]23)OCO4)cc(OC)c1O
IC50 (Histone deacetylase 2): 10400 nM | IC50 (HCT-116): 520 nM | IC50 (Histone deacetylase 3): 11600 nM | IC50 (Histone deacetylase 1): 14100 nM | inhibition [2]: Active | IC50 (A549): 1160 nM

COc1cc([C@@H]2c3cc4c(cc3[C@@H](Nc3ccccc3OCCCC(=O)NO)[C@H]3COC(=O)[C@H]23)OCO4)cc(OC)c1O
IC50 [1]: 357 nM | IC50 (HCT-116): 28900 nM | IC50 (Histone deacetylase 3): 1440 nM | IC50 (Histone deacetylase 1): 578 nM
